Test results: patent publication US10174067B2, “Type of cytidine derivative and application thereof” (priority 2014, dated 2019)
Marks after values point to notes of the source that are not given here.

Experiments:
ICR mice = test: in vivo; conditions: female ICR mice; single-dose ip
Method: This experiment was to investigate the toxic effects of single-dose intraperitoneal administration on ICR mice and determine the maximum tolerated dose (MTD) of each subject. Maximum tolerated dose (MTD) refers to the dose that may not cause an animal to die, may not cause the animal to suffer weight loss exceeding 10% (compared with Day 0), or may not produce significant side effects.
The corresponding amount of test substance was taken in a 5 mL glass tube and dissolved in ethanol with a 5 mm magnetic stirrer for stirring. After dissolving completely, Cremophor EL was added with continuous stirring. The marked amount of saline was added and mixed evenly before use. The volume ratio of ethanol, Cremophor EL, and physiological saline was 5:5:90.
Varieties and lines: ICR mice; level: SPF; sex: female.
Method of administration: ip. The dose was reduced in case of animal death, till an animal survived; the dose was increased in case of no animal death; the test was ended when the animals survived normally at the given high dose. Finally, the MTD of the mice on the test substances was determined according to the test results. The animals were observed continuously for 7 days after acute administration.
During the experiment, all animals were under detailed and continuous clinical observation for […], twice a day (10:00 am, 16:00 pm) after administration. The observation included but not limited to: skin, hair, ear, nose, mouth, chest, abdomen, external genitalia, limbs and feet, respiratory and circulatory system, autonomic effects (such as salivation), nervous system (such as tremor, convulsions, stress response and abnormal behavior).
The body of animals was weighed before administration, and then weighed and recorded at the same time each day.
The observation results, animal body weight, and animal survival after one week of administration were recorded in detail every day.

[1] = system: HCT-116 colon cancer xenografts; test: Tumor growth inhibition of HCT-116 colon cancer xenografts in tumor-bearing nude mice (tumor volume, TGI %, RTV, T/C %); assay type: in vivo, Balb/c Nude mice; conditions: G10-G16 groups, single IP 400 mg/kg
How it was run: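 Tumors in HCT-116-inoculated nude mice were sized three times weekly by diameter, with volume V=3/4π(D/2)^3. Significance set at P<0.05.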

[2] = How it was run: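 Test compounds formulated in ethanol:Cremophor EL:saline (5:5:90), vehicle alone as control, in HCT-116 subcutaneous xenografts in female Balb/c nudes (6/group, start 60–150 mm^3). Weight measured three times weekly, tumour weight at end; unpaired t-test on Mean±SEM data.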
[3] = Day 1, G10-G16 groups, single IP 400 mg/kg, Mean±SEM
[4] = Day 2, G10-G16 groups, single IP 400 mg/kg, Mean±SEM
[5] = Day 4, G10-G16 groups, single IP 400 mg/kg, Mean±SEM
[6] = Day 7, G10-G16 groups, single IP 400 mg/kg, Mean±SEM
[7] = Day 9, G10-G16 groups, single IP 400 mg/kg, Mean±SEM
[8] = Day 11, G10-G16 groups, single IP 400 mg/kg, Mean±SEM
[9] = Day 14, G10-G16 groups, single IP 400 mg/kg, Mean±SEM
[10] = Day 16, G10-G16 groups, single IP 400 mg/kg, Mean±SEM
[11] = Day 18, G10-G16 groups, single IP 400 mg/kg, Mean±SEM
[12] = Day 21, G10-G16 groups, single IP 400 mg/kg, Mean±SEM
[13] = Day 23, G10-G16 groups, single IP 400 mg/kg, Mean±SEM
[14] = Day 25, G10-G16 groups, single IP 400 mg/kg, Mean±SEM
[15] = Day 28, G10-G16 groups, single IP 400 mg/kg, Mean±SEM
[16] = Day 30, G10-G16 groups, single IP 400 mg/kg, Mean±SEM

## CCCCOC(=O)Nc1nc(=O)n(C2OC(COC(=O)COc3nc(Cl)c(Cl)cc3Cl)C(O)C2(F)F)cc1Br (stereo not shown) [Compound G16]
ICR mice
  dose that could be tolerated (maximum tolerated dose, MTD): 400 mg/kg
[1]; Day 0
  Day 0 (RTV): 1.00
[1]; Day 0, Mean±SEM
  Tumor volume, Day 0: 52.57 ± 10.93** mm^3
[1]; Day 1
  Day 1 (TGI %): 63.52%
[1]; Day 1, Mean±SEM
  Day 1 (RTV): 1.25 ± 0.20
  Tumor volume, Day 1: 65.85 ± 18.30** mm^3
[1]; Day 2
  Day 2 (TGI %): 56.02%
[1]; Day 2, Mean±SEM
  Day 2 (RTV): 2.10 ± 0.74
  Tumor volume, Day 2: 97.57 ± 24.94** mm^3
[1]; Day 4
  Day 4 (TGI %): 52.31%
[1]; Day 4, Mean±SEM
  Day 4 (RTV): 3.10 ± 1.46
[1]; Day 7
  Day 7 (TGI %): 45.07%
[1]; Day 7, Mean±SEM
  Day 7 (RTV): 5.12 ± 2.41
  Tumor volume, Day 7: 237.57 ± 74.65* mm^3
[1]; Day 9
  Day 9 (TGI %): 33.79%
[1]; Day 9, Mean±SEM
  Day 9 (RTV): 8.09 ± 3.62
  Tumor volume, Day 9: 390.87 ± 115.68 mm^3
[1]; Day 11
  Day 11 (TGI %): 36.38%
[1]; Day 11, Mean±SEM
  Day 11 (RTV): 12.66 ± 5.21
  Tumor volume, Day 11: 621.03 ± 173.32 mm^3
[1]; Day 14
  Day 14 (TGI %): 27.91%
[1]; Day 14, Mean±SEM
  Day 14 (RTV): 20.81 ± 7.22
  Tumor volume, Day 14: 1038.23 ± 262.72 mm^3
[1]; Day 16
  Day 16 (TGI %): 27.25%
[1]; Day 16, Mean±SEM
  Day 16 (RTV): 26.35 ± 8.64
  Tumor volume, Day 16: 1317.52 ± 322.74 mm^3
[1]; Day 18
  Day 18 (TGI %): 21.59%
[1]; Day 18, Mean±SEM
  Day 18 (RTV): 31.97 ± 10.14
  Tumor volume, Day 18: 1566.87 ± 378.64 mm^3
[1]; Day 21
  Day 21 (TGI %): 23.19%
[1]; Day 21, Mean±SEM
  Day 21 (RTV): 38.61 ± 9.84
  Tumor volume, Day 21: 1877.91 ± 388.81 mm^3
[1]; Day 23
  Day 23 (TGI %): 18.55%
[1]; Day 23, Mean±SEM
  Day 23 (RTV): 39.81 ± 9.58
  Tumor volume, Day 23: 1923.55 ± 392.05 mm^3
[1]; Day 25
  Day 25 (TGI %): 18.29%
[1]; Day 25, Mean±SEM
  Day 25 (RTV): 43.89 ± 10.29
  Tumor volume, Day 25: 2110.15 ± 421.51 mm^3
[1]; Day 28
  Day 28 (TGI %): 38.94%
[1]; Day 28, Mean±SEM
  Day 28 (RTV): 39.62 ± 10.42
  Tumor volume, Day 28: 1642.01 ± 659.32 mm^3
[1]; Day 30
  Day 30 (TGI %): 52.84%
[1]; Day 30, Mean±SEM
  Day 30 (RTV): 38.70 ± 10.60
  Tumor volume, Day 30: 1323.36 ± 626.45 mm^3
[2]; Day 0, G10-G16 groups, single IP 400 mg/kg
  Weight change rate, Day 0: 0.00%
[2]; Day 0, G10-G16 groups, single IP 400 mg/kg, Mean±SEM
  Weight of mice, Day 0: 20.60 ± 0.23 g
[2]; [3]
  Weight change rate, Day 1: −0.99 ± 0.59%
  Weight of mice, Day 1: 20.40 ± 0.32 g
[2]; [4]
  Weight change rate, Day 2: −0.79 ± 0.84%
  Weight of mice, Day 2: 20.45 ± 0.30 g
[2]; [5]
  Weight change rate, Day 4: −0.38 ± 1.13%
  Weight of mice, Day 4: 20.62 ± 0.28 g
[2]; [6]
  Weight change rate, Day 7: −1.73 ± 0.99 %
  Weight of mice, Day 7: 20.43 ± 0.27 g
[2]; [7]
  Weight change rate, Day 9: 1.99 ± 1.71 %
  Weight of mice, Day 9: 21.03 ± 0.23 g
[2]; [8]
  Weight change rate, Day 11: 3.60 ± 1.31%
  Weight of mice, Day 11: 21.32 ± 0.26 g
[2]; [9]
  Weight change rate, Day 14: 1.54 ± 2.06 %
  Weight of mice, Day 14: 20.87 ± 0.22 g
[2]; [10]
  Weight change rate, Day 16: 2.61 ± 2.41%
  Weight of mice, Day 16: 21.02 ± 0.33 g
[2]; [11]
  Weight change rate, Day 18: 6.99 ± 2.87 %
  Weight of mice, Day 18: 21.80 ± 0.44 g
[2]; [12]
  Weight change rate, Day 21: 5.42 ± 2.41 %
  Weight of mice, Day 21: 21.55 ± 0.34 g
[2]; Day 22, single IP dose (mg/kg)
  Day 22 Mortality: 0%
[2]; [13]
  Weight change rate, Day 23: 7.14 ± 3.88%
  Weight of mice, Day 23: 21.78 ± 0.58 g
[2]; [14]
  Weight change rate, Day 25: 7.62 ± 3.76%
  Weight of mice, Day 25: 21.83 ± 0.59 g
[2]; [15]
  Weight change rate, Day 28: 3.66 ± 3.27%
  Weight of mice, Day 28: 21.27 ± 0.43 g
[2]; [16]
  Weight change rate, Day 30: 4.94 ± 2.45%
  Weight of mice, Day 30: 21.20 ± 0.60 g
[2]; after single IP dose, compared with model control group
  clinical symptoms: no significant differences in clinical symptoms
